Where two headings read alike, the source gives them in different places.
System: Albino-Ratte
Test: Randall-Selitto test (analgesic effect, determination of synergism)
Assay type: in vivo
Details: per os; for Steigerung der analgetischen Wirksamkeit um den Faktor: ED50 alone versus ED50 in the combination, rat; for ED50: Rattus norvegicus, po
Text: Die erfindungsgemäße Komtination zeigt beispielsweise im Randall-Selitto-Test einen Synergismus der analgetischen Wirkung, die gegenüber der Analgesie des reinen Flupirtin (Das Fiupirt^in wird stets als Maleat, Gluconat oder Hydrochlorid untersucht.) und dem reinen 4-Acetamido-phenol überadditiv gesteigert ist.
Die Wirkung der erfindungsgemäßen Kombination geht beispielsweise aus folgenden Versuchen hervor: Diese Untersuchungen erfolgten im Randall-Selitto-Test an der Albino-Ratte. Hierbei wird sowohl die Flupirtin-Dosis (Hydrochlorid) konstant gehalten, als auch bei konstanter Dosis des 4-Acetamido-phenols die Flupirtin-. Dosis geändert und jeweils im ersten Fall die ED50 der analgetischen Wirkung des 4-Acetamido-phenols und im zweiten Fall die analgetische Hauptwirkung des Flupirtins in der Kombination bestimmt (Methode der Bestimmung des Synergismus nach Forth, Henschler und Rummel, Lehrbuch Pharmakologie und Toxikologie, Ausgabe 1980, Seite 65; Wissenschaftsverlag, Bibliographisches Institut Mannheim, Wien und Zürich).
So wird beispielsweise in dem vorstehend angegebenen Test die analgetisch wirksame ED50 des Flupirtins von 30,94 mg/kg per os auf 1,65 mg/kg und die analgetisch wirksame ED50 des 4-Acetamido-phenols (Paracetamol) von 71,47 mg/kg auf 0,6 mg/kg per os gesenkt. In diesem Test erfolgt also eine Steigerung der analgetischen Wirksamkeit des Flupirtins um den Faktor 18 und hinsichtlich der analgetischen Wirkung des Paracetamols um den Faktor 119.

SMILES	Steigerung der analgetischen Wirksamkeit um den Faktor	ED50 (4-Acetamido-phenol alone, read-out: analgetisch wirksame ED50 des 4-Acetamido-phenols (Paracetamol))	ED50 (4-Acetamido-phenol in combination with a constant dose of Flupirtin (hydrochloride), read-out: analgetisch wirksame ED50 des 4-Acetamido-phenols (Paracetamol))	ED50 (Flupirtin (hydrochloride) in combination with a constant dose of 4-Acetamido-phenol, read-out: analgetisch wirksame ED50 des Flupirtins)	ED50 (Flupirtin alone (hydrochloride), read-out: analgetisch wirksame ED50 des Flupirtins)
CC(=O)Nc1ccc(O)cc1 [4-Acetamido-phenol]	119	71.5 mg/kg	0.6 mg/kg	–	–
CCOC(=O)Nc1ccc(NCc2ccc(F)cc2)nc1N [Flupirtin, 2-Amino-3-carbethoxyamino-6-(4-fluor-be-nzylamino)-pyridin]	18	–	–	1.65 mg/kg	30.9 mg/kg
